Paper PMC12332266 (Frontiers in Pharmacology, 2025)
“Also recorded” adds a separate entry of the source. Like-named read-outs stand apart in the source and are kept apart here.

Legend:
[1] = tested on: hiPSC-CM (iCell Cardiomyocytes^2); test: Intracellular miRNA expression by RT-qPCR in hiPSC-CM pellets after 72-hour treatment; conditions: for fold induction at 0.3 µM / fold induction at 1 µM / fold induction at 3 µM / fold induction at 10 µM / fold induction at 0.1 µM: Homo sapiens
In short: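 After 72-hour treatment and RTCA CardioECR assessment, total RNA from hiPSC-CM pellets was reverse transcribed, pre-amplified and quantified by TaqMan RT-qPCR against a 17-miRNA panel. Triplicates were pooled, so no statistical analysis was performed.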

[2] = tested on: hiPSC-CM (iCell Cardiomyocytes^2); test: RTCA CardioECR assessment (impedance and electrophysiology parameters)
In short: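 iCell^2 cardiomyocytes on fibronectin-coated ePlates monitored continuously by impedance for cell index, beating rate and amplitude. Field potential duration and spike amplitude were recorded from day 4–6 after monolayer formation. Data were double-normalized to DMSO control and baseline, with variability given as SD.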

[3] = tested on: hiPSC-CM (iCell Cardiomyocytes^2); test: miRNA in hiPSC-CM culture media by RT-qPCR at 24, 48 and 72 h post-treatment; conditions: doxorubicin 0.1 μM, vinblastine 0.3 μM;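 also: medium RNA quantified by RT-qPCR, CT-values normalized to housekeeping miRNAs, compared against DMSO control, doses chosen from the MEC for CI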
Method: To extract total RNA from the culture media, hiPSC-CM were plated on 24-well plates by seeding 275,000 cells per mL per well. hiPSC-CM were maintained for 7 days in 200 µL of iCell^2 Maintenance Medium (iCell^2 MM; FCDI) for the 48-well ePlate and in 1 mL for 24-well plate, before drug treatment. Culture media change was performed every 2 days.
Stock solutions were diluted 1:1000 in iCell^2 MM before treatment and equilibrated at 37°C. As vehicle control, DMSO 0.1% was added to the media. Drug treatments on biological replicates (n = 3) were refreshed daily, and culture media was collected for further miRNA analysis. After 72 h, cell pellets were collected and stored at −80°C until total RNA extraction.
hiPSC-CM culture media was collected daily from 24-well plates, and centrifuged (+4°C, 11,000 rpm) for 5 min to remove cellular debris/cells. Total RNA was extracted from 300 µL of supernatant by Trizol/Chloroform phase separation and purification of total RNA by miRNeasy 96 Kit (Qiagen, Hilden, Germany). The spike-in control cel-miR-39 (Qiagen, Hilden, Germany) was used to check the quality of samples and PCR efficiency. DNase treatment (RNase-Free DNase Set (Qiagen, Hilden, Germany)) was applied according to the manufacturer’s instructions. After the RNA extraction, the same RT-qPCR protocol as for hiPSC-CM lysate was followed. Multiple unpaired t-tests were performed to compare delta CT-values (CT-values normalized to the housekeeping miRNAs) of the treatment groups to the DMSO control.
Analysis of miRNA in the culture media of hiPSC-CM treated with structural cardiotoxicants was performed at 24-, 48- and 72-hour post-treatment. […] The treatment concentrations were selected based on the MEC for CI to ensure that the preliminary evidence of cardiotoxicity in hiPSC-CMs could potentially lead to miRNA release in the culture media.

[4] = ref extensive literature search, cited from earlier work
[5] = 72 h, read-out: hsa-miR-7-5p fold change
[6] = 72 h, read-out: hsa-miR-29a-5p fold change
[7] = 72 h, read-out: hsa-miR-146b-5p fold change
[8] = 72 h, read-out: hsa-miR-187-3p fold change
[9] = hiPSC-CM, 72-hour treatment, lowest concentration causing at least 20% change from baseline
[10] = 72 h, read-out: hsa-miR-96-5p fold change
[11] = 72 h, read-out: hsa-miR-126-3p fold change
[12] = 72 h, read-out: hsa-miR-133b fold change
[13] = 72 h, read-out: hsa-miR-182-5p fold change
[14] = 72 h, read-out: hsa-miR-185-3p fold change
[15] = 72 h, read-out: hsa-miR-208b-3p fold change
[16] = 72 h, read-out: hsa-miR-365a-5p fold change
[17] = 72 h, read-out: hsa-miR-[…] change

## COc1cccc2c1C(=O)c1c(O)c3c(c(O)c1C2=O)C[C@@](O)(C(=O)CO)C[C@@H]3O[C@H]1C[C@H](N)[C@H](O)[C@H](C)O1 [Doxorubicin]
[1]
  intracellular miRNA upregulation in hiPSC-CM, in words: lowest upregulation of miRNAs was detected at the highest concentration tested
  miRNAs hiPSC-CM pellet, MEC overall: 0.03 µM
  miRNAs upregulated at the MEC overall (hiPSC-CM pellet): miR-34a-5p, miR-146b-5p, miR-187-3p
[2]; hiPSC-CM, change ≥20%, Table 2
  RTCA, MEC (CI): 0.1 µM (CI)
[2]; human, 72 h
  Contractility Amplitude MEC: 0.1 µM
  Spike Amplitude (SA) MEC: 0.01 µM
[3]; 24, 48, 72 h, arsenic trioxide 0.48 μM, milrinone 3 μM, vincristine 0.3 μM, erlotinib 7.7 μM
  hsa-miR-133b in culture media, in words: upregulation was detected only after 72 h of treatment; also recorded: significant upregulation was observed only after 72-hour treatment
[3]
  hsa-miR-187-3p in culture media, in words: detected in the culture media only following 72-hour exposure
[4]; Supplementary Table 1
  Cmax total: 1.6 µM
[4]; Table 1
  Cmax total: 1.60 µM

## O=c1[nH]cc(F)c(=O)[nH]1 [5-FluoroUracil]
[1]
  intracellular miRNA upregulation in hiPSC-CM, in words: smallest fold change
[1]; [5]
  fold induction at 0.3 µM: 0.7
  fold induction at 1 µM: 0.5
  fold induction at 3 µM: 0.5
  fold induction at 10 µM: 0.7
[1]; [6]
  fold induction at 0.3 µM: 0.6
  fold induction at 1 µM: 0.5
  fold induction at 3 µM: 0.5
  fold induction at 10 µM: 0.8
[1]; [7]
  fold induction at 0.3 µM: 0.6
  fold induction at 1 µM: 0.3
  fold induction at 3 µM: 0.3
  fold induction at 10 µM: 1.6
[1]; [8]
  fold induction at 0.3 µM: 1.2
  fold induction at 1 µM: 1.2
  fold induction at 3 µM: 1.1
  fold induction at 10 µM: 0.5
[2]; [9]
  Cell index (CI) MEC: ND (ND – not detected, magnitude of change was lower than 20%)
[2]; hiPSC-CM, 72 h, RTCA CardioECR and intracellular miRNA compared
  changes in CI or BR and miRNA expression, in words: did not induce either changes in CI or BR above 20% or miRNA expression above 2-fold change
[2]; hiPSC-CM, change ≥20%, Table 2
  RTCA, MEC (CI): ND (ND – not detected, magnitude of change was lower than 20% for CI/BR)
[4]; Supplementary Table 1
  Cmax total: 4.6 µM
[4]; Table 1
  Cmax total: 4.60 µM

## COc1cccc2c1C(=O)c1c(O)c3c(c(O)c1C2=O)C[C@@](O)(C(C)=O)C[C@@H]3O[C@H]1C[C@H](N)[C@H](O)[C@H](C)O1 [Daunorubicin]
[1]
  miRNAs hiPSC-CM pellet, MEC overall: 0.1 µM
  miRNAs upregulated at the MEC overall (hiPSC-CM pellet): miR-96 -5p, miR-185-3p, miR-187-3p, miR-365a-5p
[2]; human
  RTCA, MEC (CI): 0.1 µM (CI, BR)
[2]; human, 72 h
  Beating Rate MEC: 0.1µM (+21%)
  Beating rate (BR) MEC: 0.1 (+21%) µM
  Contractility Amplitude MEC: 0.3µM (-82%)
  Field Potential Duration MEC: 0.1 µM
  RTCA, MEC (BR): 0.1 µM (CI, BR)
  Spike Amplitude (SA) MEC: 0.1µM (-93%)
[4]; Supplementary Table 1
  Cmax total: 0.310 to 7.84 µM
[4]; Table 1
  Cmax total: 0.31 to 7.84 µM

## COc1cc([C@@H]2c3cc4c(cc3[C@@H](O[C@@H]3O[C@@H]5CO[C@@H](C)O[C@H]5[C@H](O)[C@H]3O)[C@H]3COC(=O)[C@H]23)OCO4)cc(OC)c1O [Etoposide]
[1]
  miRNAs hiPSC-CM pellet, MEC overall: 0.1 µM
  miRNAs upregulated at the MEC overall (hiPSC-CM pellet): miR-187-3p
[2]; human, 72 h
  Field Potential Duration MEC: 3 µM
  Spike Amplitude (SA) MEC: 0.3 µM
[4]; Supplementary Table 1
  Cmax total: 33.4 µM
[4]; Table 1
  Cmax total: 33.40 µM

## CS(=O)(=O)CCNCc1ccc(-c2ccc3ncnc(Nc4ccc(OCc5cccc(F)c5)c(Cl)c4)c3c2)o1 [Lapatinib]
[1]
  miRNAs hiPSC-CM pellet, MEC overall: 0.1 µM
  miRNAs upregulated at the MEC overall (hiPSC-CM pellet): miR-126-3p, miR-146b-5p, miR-182-5p, miR-187-3p
[2]; hiPSC-CM, change ≥20%, Table 2
  RTCA, MEC (CI): ND (ND – not detected, magnitude of change was lower than 20% for CI/BR)
[2]; human, 72 h
  Field Potential Duration MEC: 0.1 µM
  Spike Amplitude (SA) MEC: 0.1 µM
[4]; Supplementary Table 1
  Cmax total: 4.18 µM
[4]; Table 1
  Cmax total: 4.18 µM

## CCC1=C[C@@H]2CN(C1)Cc1c([nH]c3ccccc13)[C@@](C(=O)OC)(c1cc3c(cc1OC)N(C)[C@H]1[C@@](O)(C(=O)OC)[C@H](OC(C)=O)[C@]4(CC)C=CCN5CC[C@]31[C@@H]54)C2 [Vinorelbine]
[1]
  intracellular miRNA upregulation in hiPSC-CM, in words: smallest fold change
  miRNAs hiPSC-CM pellet, MEC overall: 0.1 µM
  miRNAs upregulated at the MEC overall (hiPSC-CM pellet): miR-34a-5p, miR-146b-5p
[1]; [5]
  fold induction at 0.1 µM: 1
  fold induction at 0.3 µM: 1.4
  fold induction at 1 µM: 0.9
  fold induction at 3 µM: 1.8
[1]; [6]
  fold induction at 0.1 µM: 0.4
  fold induction at 0.3 µM: 1.1
  fold induction at 1 µM: 0.2
  fold induction at 3 µM: 0.9
[1]; [10]
  fold induction at 0.1 µM: 1.3
  fold induction at 0.3 µM: 4.8
  fold induction at 1 µM: 0.9
[1]; [11]
  fold induction at 0.1 µM: 1.4
  fold induction at 0.3 µM: 2
  fold induction at 1 µM: 0.6
  fold induction at 3 µM: 0.2
[1]; [12]
  fold induction at 0.1 µM: 0.1
  fold induction at 0.3 µM: 0.2
  fold induction at 1 µM: 0.3
  fold induction at 3 µM: 0.1
[1]; [7]
  fold induction at 0.1 µM: 3.1
  fold induction at 0.3 µM: 1.1
  fold induction at 1 µM: 0.1
  fold induction at 3 µM: 0.2
[1]; [13]
  fold induction at 0.1 µM: 0.7
  fold induction at 1 µM: 0.1
[1]; [14]
  fold induction at 0.1 µM: 1.2
  fold induction at 0.3 µM: 1.9
  fold induction at 1 µM: 0.9
  fold induction at 3 µM: 0.6
[1]; [8]
  fold induction at 0.1 µM: 1.1
  fold induction at 0.3 µM: 0.9
  fold induction at 1 µM: 0.8
  fold induction at 3 µM: 0.3
[1]; [15]
  fold induction at 0.1 µM: 0.8
  fold induction at 0.3 µM: 1.7
  fold induction at 1 µM: 0.7
  fold induction at 3 µM: 0.8
[1]; [16]
  fold induction at 0.3 µM: 2.4
  fold induction at 1 µM: 0.1
[2]; [9]
  Cell index (CI) MEC: 0.1 µM
[2]; hiPSC-CM, change ≥20%, Table 2
  RTCA, MEC (CI): 0.1 µM
[2]; human, 72 h
  Beating Rate MEC: 1 µM
  Beating rate (BR) MEC: 1 µM
  Cell Index MEC: 0.1 µM
  Contractility Amplitude MEC: 0.1 µM
  Field Potential Duration MEC: 1 µM
  RTCA, MEC (BR): 1 µM
  Spike Amplitude (SA) MEC: 0.1 µM
[4]; Supplementary Table 1
  Cmax total: 0.811 µM
[4]; Table 1
  Cmax total: 0.81 µM

## CCN(CC)CCNC(=O)c1c(C)[nH]c(/C=C2\C(=O)Nc3ccc(F)cc32)c1C [Sunitinib]
[1]; lowest concentration tested which produced miRNA upregulation (fold change ≥2), 72 h
  miRNAs hiPSC-CM pellet, MEC overall: 0.01 µM
[2]; hiPSC-CM, 72-hour treatment, at least 20% change, Supplementary Table 1
  Beating Rate MEC: 1 µM
[2]; [9]
  Beating rate (BR) MEC: 1 µM
[2]; hiPSC-CM, change ≥20%, Table 2
  RTCA, MEC (BR): 1 µM (BR)
[2]; human, 72 h
  Spike Amplitude (SA) MEC: 0.01 µM
[4]; Supplementary Table 1
  Cmax total: 0.181 to 0.25 µM
[4]; Table 1
  Cmax total: 0.18 to 0.25 µM

## C#Cc1cccc(Nc2ncnc3cc(OCCOC)c(OCCOC)cc23)c1 [Erlotinib]
[1]
  miRNAs hiPSC-CM pellet, MEC overall: 0.23 µM
  miRNAs upregulated at the MEC overall (hiPSC-CM pellet): miR-1-3p, miR-21-5p, miR-34a-5p, miR-208b-3p
[1]; human, 72 h
  intracellular miRNA upregulation in hiPSC-CM, in words: upregulation of three miRNAs (hsa-miR-146b-5p, hsa-miR-182-5p, hsa-miR-365a-5p)
[2]; human, 72 h
  Beating Rate MEC: 0.77 µM
  Beating rate (BR) MEC: 0.77 µM
  RTCA, MEC (BR): 0.77 µM (BR)
  Spike Amplitude (SA) MEC: 0.23 µM
[4]; Supplementary Table 1
  Cmax total: 3.15 to 4.8 µM
[4]; Table 1
  Cmax total: 3.15 to 4.80 µM

## CCCN1C[C@H](CSC)C[C@@H]2c3cccc4[nH]cc(c34)C[C@H]21 [Pergolide]
[1]
  miRNAs hiPSC-CM pellet, MEC overall: 0.3 µM
  miRNAs upregulated at the MEC overall (hiPSC-CM pellet): miR-96-5p, miR-146b-5p
[1]; [5]
  fold induction at 0.3 µM: 1
  fold induction at 1 µM: 0.7
  fold induction at 3 µM: 1.4
  fold induction at 10 µM: 1
[1]; [6]
  fold induction at 0.3 µM: 1
  fold induction at 1 µM: 0.2
[1]; [10]
  fold induction at 0.3 µM: 2.8
  fold induction at 1 µM: 5.6
[1]; [11]
  fold induction at 0.3 µM: 1.2
  fold induction at 1 µM: 1.1
  fold induction at 3 µM: 1.1
  fold induction at 10 µM: 2
[1]; [7]
  fold induction at 0.3 µM: 4.3
  fold induction at 1 µM: 6.1
  fold induction at 3 µM: 20.8
  fold induction at 10 µM: 1.1
[1]; [13]
  fold induction at 0.3 µM: 0.5
  fold induction at 1 µM: 2.2
  fold induction at 3 µM: 0.9
  fold induction at 10 µM: 2.2
[1]; [14]
  fold induction at 0.3 µM: 1.1
  fold induction at 1 µM: 5.6
  fold induction at 3 µM: 7.2
  fold induction at 10 µM: 1.9
[1]; [8]
  fold induction at 0.3 µM: 0.6
  fold induction at 1 µM: 0.9
  fold induction at 3 µM: 21.8
  fold induction at 10 µM: 0.6
[1]; [15]
  fold induction at 0.3 µM: 1.5
  fold induction at 1 µM: 2.2
  fold induction at 3 µM: 2.6
  fold induction at 10 µM: 2.5
[1]; [16]
  fold induction at 1 µM: 5.2
[1]; [17]
  fold induction at 0.3 µM: 0.9
  fold induction at 1 µM: 1.1
  fold induction at 3 µM: 1.7
  fold induction at 10 µM: 1.4
[2]; human, 72 h
  Contractility Amplitude MEC: 0.0003 µM
  Spike Amplitude (SA) MEC: 10 µM
[4]; Supplementary Table 1
  Cmax total: 12.7 µM
[4]; Table 1
  Cmax total: 12.7 µM
